Each structure is given as a SMILES string.

Results on six compounds are retold here after ChEMBL document CHEMBL2424570, “New synthetic approach to coumarino[4,3-b]pyridine systems and potential cytotoxic evaluation” (Med Chem Res, 2013).

The subject of test [1] is Ehrlich. As to the kind of experiment: Ratio of 5-fluorouracil IC100 to compound IC100 for mouse EAC cells. The format is functional.
A short description of test [2]: Antitumor activity against mouse EAC cells by trypan blue exclusion assay. As to conditions: for IC25 / IC50: Mus musculus, Ehrlich. The format is functional, cell-based, Ehrlich.
Test [3] deals with Ehrlich. As to the kind of experiment: Ratio of 5-fluorouracil IC50 to compound IC50 for mouse EAC cells. The class given is functional.
In test [4] the test system is Ehrlich. Kind of test: Ratio of 5-fluorouracil IC25 to compound IC25 for mouse EAC cells. The format is functional.

Usually IC25 stands for the concentration at which the effect reaches the 25% level. The IC50 is the concentration that inhibits the measured activity by half. A low value points to inhibition by little substance. For `O=C1c2ccccc2-c2nc3c(c(-c4ccccc4)c21)c(=O)oc1ccccc13`, the Ratio in the test on Ehrlich [1] is 3. For the same compound, in test [2], the IC100 is 0.27 µM, the IC25 is 60 nM and the IC50 amounted to 130 nM. The “Ratio IC50” value with Ehrlich [3] worked out at 3. Moreover, the Ratio with Ehrlich [4] was 3.

Take `Nc1c(C(c2ccc(Cl)cc2)c2c(N)c3ccccc3oc2=O)c(=O)oc2ccccc12`: in the test with Ehrlich [1], the Ratio came to 3. Also, in test [2], the IC100 was 0.25 µM, the IC25 turned out to be 60 nM and the IC50 was determined as 120 nM. Further, the “Ratio IC50” value in the test on Ehrlich [3] came to 3. Further, the Ratio in the test on Ehrlich [4] is 3.

On to `O=c1oc2ccccc2c2nc(-c3ccccc3)cc(-c3ccc([N+](=O)[O-])cc3)c12`, for which the Ratio with Ehrlich [1] stood at 3. Moreover, in test [2], the IC100 was determined as 0.25 µM, the 25% effect level (IC25) was put at 60 nM and half-maximal inhibition (IC50) was put at 120 nM. In addition, the “Ratio IC50” value in the test on Ehrlich [3] turned out to be 3. In the test on Ehrlich [4], the Ratio was 3.

With `O=c1oc2ccccc2c2nc3c(c(-c4ccccc4)c12)CCC/C3=C\c1ccccc1`, in the test with Ehrlich [1], the Ratio was determined as 3. In test [2], this compound came in with an IC100 of 0.24 µM, a concentration for an effect of 25% (IC25) of 60 nM and a half-inhibitory concentration (IC50) of 120 nM. In the test on Ehrlich [3], the “Ratio IC50” value is given as 3. In addition, the Ratio in the test on Ehrlich [4] amounted to 3.

With `O=c1oc2ccccc2c2nc(/C=C/c3ccccc3)cc(-c3ccccc3)c12`, in the test with Ehrlich [1], the Ratio stood at 3. In test [2], this compound gave an IC100 of 0.27 µM, a concentration for an effect of 25% (IC25) of 60 nM and an IC50 of 130 nM. In addition, the “Ratio IC50” value with Ehrlich [3] is on record as 3. Also, the Ratio in the test on Ehrlich [4] is given as 3.

In test [2], `O=c1[nH]cc(F)c(=O)[nH]1` [FLUOROURACIL] had an IC100 of 0.77 µM, a 25% effect concentration (IC25) of 190 nM and a 50% inhibitory concentration (IC50) of 380 nM.
